Assay results taken from US10881703B2, “Composition for use in the treatment of intestinal alterations” (priority 2016, dated 2021).

System: THP-1 cells and intestinal epithelial cells (CacoGoblet)
Assay: Monocyte-epithelial cell adhesion assay (THP-1 cells on CacoGoblet)
Type: cell-based, human
Conditions: inflamed mucosa (IL1 beta 10 ng/ml overnight), 24 hours treatment
Procedure: The CacoGoblet cells were pre-treated with 10 ng/ml of IL1 beta overnight. […] A parallel treatment was carried out with the reference molecule etacortilen (Dexamethasone Sodium Phosphate) at 0.15% in order to study the overcoming of the inflammatory state of the mucosa. […] Once the non-adherent cells had been removed, the residual surface fluorescence of the THP-1 cells was evaluated under a microscope. The anti-inflammatory activity of the various compounds at the intestinal level was assessed in a static assay using the reduction in the cellular adhesion of THP-1 on CacoGoblet as an endpoint parameter. • 2) Ability of Cranberries to Prevent Adhesion of E. Coli to Mucosa The CacoGoblet cells were treated overnight with IL-1beta, the pro-inflammatory cytokine, prior to the adhesion assay in order to create inflamed mucosa. The treated monolayers were then treated with the products for 24 hours. The marked THP-1 cells were added on top of the CacoGoblet in each well. The THP-1 cells were marked with the fluorescent dye chloromethylfluorescein diacetate (CMFDA; Invitrogen). After incubation, the monolayer was gently washed to remove the non-adherent THP-1 cells. The adherent cells marked with the fluorescent dye were viewed under a fluorescence microscope. […]

C[C@@H]1C[C@H]2[C@@H]3CCC4=CC(=O)C=C[C@]4(C)[C@@]3(F)[C@@H](O)C[C@]2(C)[C@@]1(O)C(=O)COP(=O)(O)O [etacortilen, Dexamethasone Sodium Phosphate]
adhesion of THP-1 cells: significant decrease in the adhesion of THP-1 cells
